Assay results from patent publication US9708330B2, “2,3-dihydroimidazol[1,2-C]pyrimidin-5(1-H)-one based ipoprotein-associated phospholipase A2 (Lp-PLA2) inhibitors” (GlaxoSmithKline Intellectual Property Development Limited, priority 2013, dated 2017).
Each block holds one compound with its values, some of them ahead of it.

Key:
rat EAE model = test: Rat experimental autoimmune encephalomyelitis (EAE) model, preventive treatment; format: in vivo
Experimental: A further study was carried out to study the impact of Lp-PLA2 inhibitors on modulating M1/M2 imbalance. In this study, rats were induced to develop experimental autoimmune encephalomyelitis (EAE) by immunization with myelin basic protein (MBP) antigen and treated with a known Lp-PLA2 inhibitor: 5-((9-Methoxy-4-oxo-6,7-dihydro-4H-pyrimido[6,1-a]isoquinolin-2-yl)oxy)-2-(3-(trifluoromethyl)phenoxy)benzonitrile (See PCT application no. PCT/CN2011/001597). In this preventive treatment model, the compound was administered at day 0 (day of immunization) and continued to administer until day 22. The study lasted for 25 days. Rats were subsequently monitored for symptoms of EAE. Rats were immunized with MBP to develop EAE and symptoms were monitored daily. Plasma Lp-PLA2 activity, OxLDL, and LysoPC concentration were determined at different time points through the course of EAE.

[1] = tested on: splenic macrophages and CNS infiltrating macrophages; test: Ex vivo analysis of M1 and M2 markers in macrophages of EAE rats by realtime PCR; parameters: species or system rat; settings: macrophages of compound treated EAE rats, day 13 post MBP-immunization
Experimental: Ex vivo analysis of proinflammatory (M1) and anti-inflammatory (M2) markers in control and compound treated EAE rats. Splenic macrophages were harvested at day 13 post MBP-immunization and assayed for expression of a variety of markers by realtime PCR. CNS infiltrating cells were harvested and macrophages were analyzed for expression of M1 and M2 markers by realtime PCR.

Lp-PLA2 in human plasma [2] = biological target: T1, Lp-PLA2 in human plasma (Homo sapiens, UniProt Q13093); test: Lp-PLA2 human plasma assay, Thio-PAF assay (3a); format: biochemical; settings: pooled human plasma, Examples 1-137, read-out: pIC50 in the Lp-PLA2 human plasma assay (converted)
T1 construct: from tissue; host or cells: pooled human plasma
T1 sequence (Q13093 22-441): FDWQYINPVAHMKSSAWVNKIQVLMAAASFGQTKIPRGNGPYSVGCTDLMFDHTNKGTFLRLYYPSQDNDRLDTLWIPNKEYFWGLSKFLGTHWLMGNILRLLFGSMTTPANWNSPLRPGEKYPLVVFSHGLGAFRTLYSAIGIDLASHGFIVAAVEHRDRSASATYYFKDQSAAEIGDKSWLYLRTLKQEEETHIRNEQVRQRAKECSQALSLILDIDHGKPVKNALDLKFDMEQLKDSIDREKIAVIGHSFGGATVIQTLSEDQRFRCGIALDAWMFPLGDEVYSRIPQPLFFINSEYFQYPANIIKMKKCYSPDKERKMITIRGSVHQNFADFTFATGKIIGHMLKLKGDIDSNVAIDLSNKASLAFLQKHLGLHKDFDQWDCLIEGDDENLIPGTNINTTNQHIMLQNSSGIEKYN
Text: The human plasma assay utilizes a thioester analog of PAF (phosphatidylcholine), where hydrolysis yields to the formation of a phospholipid containing a free thiol group. The amount of thiol is quantitated continuously by reacting with CPM (7-diethylamino-3-(4′-maleimidylphenyl)-4-methylcoumarin), a maleimide which increases in fluoresence after Michael addition of thiols. This assay may detect the activity of Lp-PLA2 in human plasma, as determined by specific inhibition by Lp-PLA2 inhibitors.
The thio-PAF assay was run as a quenched 15 μL assay. Compounds source plate was prepared by making 1:3 (by volume) serial dilution of the compounds into pure DMSO on 384-well microplate. 0.01 μL of compounds on compound source plate were transferred to 384 well Greiner 784076 (black) low-volume plates by ECHO liquid dispenser. 8 μL pooled human plasma, which was previously aliquoted and frozen, was added. Plates were centrifuged for 10 sec at 500 rpm. After 30 minutes preincubation, 2 μL of substrate solution comprising 2.5 mM 2-thio-PAF [from ethanol stock], 32 μM CPM [from a DMSO stock] and 3.2 mM NEM (N-ethylmaleimide) [made fresh daily in DMSO] in assay buffer of 50 mM HEPES, pH 7.4, 150 mM NaCl, 1 mM CHAPS was added to 384 well Greiner 784076 (black) low-volume plates by BRAVO liquid handling station. […] Plates were read at ex: 380 /em: 485 using Envision microplate reader. […]

[3] = biological target: T2, recombinant human Lp-PLA2 (Homo sapiens, UniProt Q13093); test: Recombinant human Lp-PLA2 assay (rhLp-PLA2), PED6 assay; format: biochemical; settings: Examples 1-137, read-out: rhLp-PLA2 (pIC50) (converted)
T2 sequence (Q13093 22-441): T1 sequence (Q13093 22-441)
Text: N-((6-(2,4-dinitrophenyl)amino)-hexanoyl)-2-(4,4-difluoro-5,7-dimethyl -4-bora-3a,4a-diaza-s-indacene-3-pentanoyl)-1-hexadecanoyl-sn-glycero-3-phosphoethanolamine, triethylammonium salt (PED6) is a commercially available fluorescently-labeled phospholipid, which is commercially available from Invitrogene and Molecular Probes. There is a quenching para-nitro phenyl (PNP) group in the sn3 position and a Bodipy fluorescein (FL) group in the sn2 position. Upon cleavage with Lp-PLA2, the Bodipy FL group is liberated and then may result in an increase in fluorescence. Inhibitors of Lp-PLA2 therefore prevent this cleavage and no fluorescent increase is observed.
The PED6 assay was run as an unquenched 10 μL assay. The source plate containing the compounds to be tested was prepared by making 1:3 (by volume) serial dilution of the compounds within DMSO on 384-well microplate. Then, 0.01 μL of the compounds on compound source plate were transferred into 384 well Greiner 784076 (black) plates using ECHO liquid dispenser. […] The plates were read for fluorescence intensity at ex: 480/em: 540 using ViewLux microplate imager for Envision spectrofluroimeters pIC50 data, curve and QC analysis was conducted by using XL fit module in Excel.

[4] = biological target: T2, recombinant human Lp-PLA2; test: Recombinant human Lp-PLA2 assay, hrThioPAF assay; format: biochemical; settings: Example 138, read-out: rhLp-PLA2 (pIC50) (converted)
Text: 1-O-hexadecyl-2-deoxy-2-thio-S-acetyl-sn-glyceryl-3-phosphorylcholine (2-thio-PAF) is a substrate for PAF-hydrolases (PAF-AH) commercially available from Cayman Chemical. Upon cleavage with PAF-AH, the free thiol is released at the sn-2 position and can then react with 7-diethylamino-3-(4′-maleimidylphenyl)-4-methylcoumarin (CPM) a thiol-reactive coumarin. This reaction (Michael addition) results in an increase in fluorescence. Inhibitors of Lp-PLA2 therefore prevent this cleavage and no fluorescent increase is observed.
The Thio-PAF assay was run as an unquenched 20 μL assay. The source plate containing the compounds to be tested was prepared by making 1:3 (by volume) serial dilution of the compounds within DMSO on 384-well microplate. Then, 5 μL of the compounds on compound source plate were transferred into 384 well Greiner 784076 (black) plates using STAR+ (Hamilton) liquid dispenser. 10 μL of recombinant human Lp-PLA2 enzyme (20 pM rhLp-PLA2 in assay buffer of 50 mM HEPES, pH 7.4, 150 mM NaCl, 1 mM CHAPS) was added to each well of the plate. […] The plates were read for fluorescence intensity at ex: 380 nm/em: 485 nm using Envision plate reader (Perkin Elmer). […]

Lp-PLA2 in human plasma [5] = biological target: T1, Lp-PLA2 in human plasma; test: Lp-PLA2 human plasma assay, alternative Thio-PAF assay (3b); format: biochemical; settings: pooled human plasma, Example 138, read-out: pIC50 in the Lp-PLA2 human plasma assay (converted)
Experimental: The human plasma assay utilizes the same thioester analog of PAF as described in (1b) “hr ThioPAF” assay. This assay may detect the activity of Lp-PLA2 in human plasma, as determined by specific inhibition by Lp-PLA2 inhibitors.
The thio-PAF assay was run as a quenched 20 μL assay. Compounds source plate was prepared by making 1:3 (by volume) serial dilution of the compounds into pure DMSO on 96-well microplate. 5 μL of compounds on compound source plate were transferred to 96-well Corning 3686 (black) low-volume plates by STAR+ (Hamilton) liquid dispenser. 10 μL pooled human plasma, which was previously aliquoted and frozen, was added. Plates were centrifuged for 30 sec at 1000 rpm. After 15 minutes preincubation at room temperature, 5 μL of substrate solution comprising 2 mM 2-thio-PAF [from ethanol stock], 52 μM CPM [from a DMSO stock] and 2.5 mM NEM (N-ethylmaleimide) [made fresh daily in DMSO] in assay buffer (50 mM HEPES, pH 7.4, 150 mM NaCl, 1 mM CHAPS) was added to 96-well Corning 3686 (black) low-volume plates. After 3 mins, reaction was quenched with 10 μL of 5% aqueous trifluoroacetic acid (TFA). Plates were centrifuged 30 sec at 1000 rpm, covered to protect from light and incubated for 10 min at room temperature. Plates were read at ex: 380 nm/em: 485 nm using Envision plate reader (Perkin Elmer). […]

Compound: COc1ccc2c(c1)CCn1c-2cc(Oc2ccc(Oc3cccc(C(F)(F)F)c3)c(C#N)c2)nc1=O [5-((9-Methoxy-4-oxo-6,7-dihydro-4H-pyrimido[6,1-a]isoquinolin-2-yl)oxy)-2-(3-(trifluoromethyl)phenoxy)benzonitrile]
plasma Lp-PLA2 activity (rat EAE model; rat EAE plasma): decreased
plasma LysoPC levels (rat EAE model; rat EAE plasma): decreased
clinical disease (EAE symptoms) (rat EAE model; rats immunized with MBP, compound administered day 0 until day 22): reduction in clinical disease
anti-inflammatory (M2) markers expression [1]: increase in M2 markers
proinflammatory (M1) markers expression [1]: decrease in M1 markers

IC50 (Lp-PLA2 in human plasma [2]): > 10000 nM
Compound: C[C@H]1Cn2c(cc(OCc3cccc(F)c3F)nc2=O)N1C [E111, (S)-7-((2,3-difluorobenzyl)oxy)-1,2-dimethyl-2,3-dihydroimidazo[1,2-c]pyrimidin-5(1H)-one]

IC50 (Lp-PLA2 in human plasma [2]): > 10000 nM
Compound: CC1(C)Cn2c(cc(OCc3ccc(F)c(F)c3)nc2=O)N1 [E120, 7-((3,4-difluorobenzyl)oxy)-2,2-dimethyl-2,3-dihydroimidazo[1,2-c]pyrimidin-5(1H)-one]

IC50 [3]: 0.251 nM
Compound: C[C@H]1Cn2c(cc(OCc3cc(F)c(Oc4ccnc(C(F)(F)F)c4)c(F)c3)nc2=O)N1 [E131, (S)-7-((3,5-difluoro-4-((2-(trifluoromethyl)pyridin-4-yl)oxy)benzyl)oxy)-2-methyl-2,3-dihydroimidazo[1,2-c]pyrimidin-5(1H)-one]

IC50 [4]: 0.794 nM
IC50 (Lp-PLA2 in human plasma [5]): ≤ 100 nM
Compound: C[C@@H]1Cn2c(cc(OCc3cc(F)c(Oc4ccnc(C(F)(F)F)c4)c(F)c3)nc2=O)N1 [E138, (R)-7-((3,5-difluoro-4-((2-(trifluoromethyl)pyridin-4-yl)oxy)benzyl)oxy)-2-methyl-2,3-dihydroimidazo[1,2-c]pyrimidin-5(1H)-one]
